# In US6534516B1, “Androgen receptor modulator compounds and methods” (Ligand Pharmaceuticals Incorporated, priority 1996, dated 2003):
# Where two headings read alike, the source gives them in different places.
# Assays:
# human AR [1] = target: T1, human AR (Homo sapiens, UniProt P10275); experiment: cell-based; type: cell-based; details: for EC50: read-out: AR Agonist CV-1 Cells Potency
# T1 construct: expressed in transfected cells; host or cells: CV-1 cells (African green monkey kidney fibroblasts)
# T1 sequence (P10275 1-920): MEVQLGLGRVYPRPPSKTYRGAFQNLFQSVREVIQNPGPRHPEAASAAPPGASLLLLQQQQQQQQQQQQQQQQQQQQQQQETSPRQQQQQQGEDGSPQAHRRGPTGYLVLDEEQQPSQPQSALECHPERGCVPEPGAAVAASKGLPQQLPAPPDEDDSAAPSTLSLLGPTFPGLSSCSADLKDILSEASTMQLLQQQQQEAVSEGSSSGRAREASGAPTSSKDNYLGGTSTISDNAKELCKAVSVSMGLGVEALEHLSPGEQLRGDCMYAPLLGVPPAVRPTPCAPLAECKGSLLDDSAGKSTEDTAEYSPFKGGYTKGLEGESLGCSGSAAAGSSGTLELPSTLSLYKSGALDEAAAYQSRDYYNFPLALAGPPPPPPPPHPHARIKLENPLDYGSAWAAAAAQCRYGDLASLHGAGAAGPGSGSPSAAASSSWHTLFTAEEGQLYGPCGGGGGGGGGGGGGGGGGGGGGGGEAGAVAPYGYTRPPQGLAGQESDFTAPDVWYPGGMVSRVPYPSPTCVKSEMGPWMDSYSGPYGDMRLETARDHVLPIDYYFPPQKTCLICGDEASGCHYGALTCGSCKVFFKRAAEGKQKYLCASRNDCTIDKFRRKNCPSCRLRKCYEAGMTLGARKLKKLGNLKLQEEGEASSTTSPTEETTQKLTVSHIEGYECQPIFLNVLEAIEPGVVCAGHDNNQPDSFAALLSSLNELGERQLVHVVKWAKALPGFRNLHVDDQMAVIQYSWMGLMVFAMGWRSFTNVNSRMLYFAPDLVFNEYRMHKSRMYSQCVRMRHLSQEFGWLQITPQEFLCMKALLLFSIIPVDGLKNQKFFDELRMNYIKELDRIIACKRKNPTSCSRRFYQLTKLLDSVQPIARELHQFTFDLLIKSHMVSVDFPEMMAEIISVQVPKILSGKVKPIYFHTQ
# Description: The co-transfection assay provides a method for identifying functional agonists and partial agonists which mimic, or antagonists which inhibit, the effect of native hormones, and quantifying their activity for responsive IR proteins. In this regard, the co-transfection assay mimics an in vivo system in the laboratory. Importantly, activity in the co-transfection assay correlates very well with known in vivo activity, such that the co-transfection assay functions as a qualitative and quantitative predictor of a tested compounds in vivo pharmacology. See, e.g., T. Berger et al. 41 J. Steroid Biochem. Molec.
# CV-1 cells (African green monkey kidney fibroblasts) were cultured in the presence of Dulbecco's Modified Eagle Medium (DMEM) supplemented with 10% charcoal resin-stripped fetal bovine serum then transferred to 96-well microtiter plates one day prior to transfection.
# The reporter plasmid, MTV-LUC, contains the cDNA for firefly luciferase (LUC) under control of the mouse mammary tumor virus (MTV) long terminal repeat, a conditional promoter containing an androgen response element. See e.g., Berger et al. supra. In addition, pRS-β-Gal, coding for constitutive expression of E. coli β-galactosidase (β-Gal), was included as an internal control for evaluation of transfection efficiency and compound toxicity.
# Three to four replicates were used for each sample.
# After 40 hours, the cells were washed with PBS, lysed with a Triton X-100-based buffer and assayed for LUC and β-Gal activities using a luminometer or spectrophotometer, respectively. For each replicate, the normalized response (NR) was calculated as:
# where β-Gal rate=β-Gal•1×10^−5/β-Gal incubation time.
# human AR [2] = target: T1, human AR; experiment: cell-based; details: read-out: AR Binding Ki
# [3] = system: immature castrated male rat; experiment: Immature castrated male rat model with testosterone silastic implant, ventral prostate and seminal vesicle weights; type: in vivo; details: for ED50: Rattus norvegicus, 72 h; for effect on ventral prostate and seminal vesicle weights (in words): Tables 5 and 6
# Description: The activity of selected compounds of the present invention as AR antagonists was *~ investigated in an immature castrated male rat model. A recognized test of the antiandrogen activity of a given compound, as described in L. G. Hershberger et al., 83 Proc. Soc. Exptl. […] Similar approaches have been used in the rat and in hamsters. […] Dermatol.
# The basis of this assay is the fact that male sexual accessory organs, such as the prostate and seminal vesicles, play an important role in reproductive function. […] See F. Labrie et al., 16 Clin. Invest. […] However, this is not a major pathway since, in both animals and humans, castration without concomitant adrenalectomy leads to almost complete involution of the prostate and seminal vesicles. […] See M. C. […] Since the male sex organs are the tissues most responsive to modulation by androgen activity, this model is used to determine the androgen-dependent growth of the sex accessory organs in immature castrated rats.
# Immature male rats (50-60 g, 21 day-old Sprague-Dawley, Harlan) were castrated under metofane anesthesia. […] As a negative control, a group of castrated animals received empty 10 mm silastic implants. Animal groups were dosed for 3 days by oral gavage as follows:
# At the end of the 3-day treatment, the animals were sacrificed, and the ventral prostates and seminal vesicles were collected and weighed. Organ weight data were normalized to body weight of each animal and expressed as mg/100 g body weight. Results were analyzed by analysis of variance followed by the Dunnett's test. Data were transformed to comply with the normality and variance homogeneity criteria required to utilize the analysis of variance and Dunnett's test. The following data transformations were used for the ventral prostate and seminal vesicle: square root and power 0.7 respectively. Thereafter, the data were fitted to a four-parameter logistic equation and potencies derived from the fitted estimates. The same data transformations were used for the equation-fitting phase of the data analysis.
# The gain and loss of sexual organ weights reflect the changes of cell number (DNA content) and cell mass (protein content), depending upon the serum androgen concentrations. […] Therefore, measurement of organ wet weights is sufficient to indicate the bioactivity of androgens and androgen antagonists.
# [4] = agonist mode, percent maximal response relative to reference agonist DHT, na = not active (efficacy < 10 and potency > 10,000)
# [5] = antagonist mode, DHT at its EC50, % of maximal inhibition, na = not active
# [6] = read-out: AR Antagonist CV-1 Cells Potency
# [7] = oral, 3 days, four-parameter logistic fit, number of experiments in parentheses, read-out: Potency (ED50) Weighted Average ± SE, Seminal Vesicle Weight
# [8] = oral, 3 days, four-parameter logistic fit, number of experiments in parentheses, read-out: Potency (ED50) Weighted Average ± SE, Ventral Prostate Weight
# [9] = T implant + 0.1 mg/kg oral, 3 days
# [10] = T implant + 1 mg/kg oral, 3 days
# [11] = T implant + 3 mg/kg oral, 3 days
# [12] = T implant + 10 mg/kg oral, 3 days
# [13] = T implant + 30 mg/kg oral, 3 days
# [14] = T implant + 100 mg/kg oral, 3 days
structure (smiles),measurement,setting,value
"CC12CCCN1c1cc3[nH]c(=O)cc(C(F)(F)F)c3cc1CC2 (racemic) [Compound 101, (R/S)-6,7,7a,11-Tetrahydro-7a-methyl-4-trifluoromethyl-2-pyridono[5,6-g]pyrrolidino[1,2-a]quinoline]",AR Antagonist CV-1 Cells Efficacy,human AR [1],86 ± 6%
same,IC50,human AR [1],325 ± 68 nM
"CCC1CCN(C=O)c2cc3[nH]c(=O)cc(C(F)(F)F)c3cc21 (racemic) [Compound 121, (R/S)-4-Ethyl-1-formyl-1,2,3,4-tetrahydro-6-(trifluoromethyl)-8-pyridono[5,6-g]quinoline]",AR Agonist CV-1 Cells Efficacy,human AR [1],72 ± 20%
same,EC50,human AR [1],150 ± 39 nM
"CCC1CCN(C(=O)C(F)(F)F)c2cc3[nH]c(=O)cc(C(F)(F)F)c3cc21 (racemic) [Compound 122, (R/S)-4-Ethyl-1,2,3,4-tetrahydro-1-(trifluoroacetyl)-6-(trifluoromethyl)-8-pyridono[5,6-g]quinoline]",AR Agonist CV-1 Cells Efficacy,human AR [1]; [4],100 ± 17%
same,EC50,human AR [1],3 nM
same,Ki,human AR [2],7 ± 2 nM
"CCC1CCNc2c1cc1c(C(F)(F)F)cc(=O)[nH]c1c2[N+](=O)[O-] (racemic) [Compound 124, (R/S)-4-Ethyl-1,2,3,4-tetrahydro-10-nitro-6-(trifluoromethyl)-8-pyridono[5,6-g]quinoline]",AR Agonist CV-1 Cells Efficacy,human AR [1]; [4],50 ± 1%
same,EC50,human AR [1],202 ± 18 nM
CC(O)(CS(=O)(=O)c1ccc(F)cc1)C(=O)Nc1ccc(C#N)c(C(F)(F)F)c1 (stereo not shown) [Casodex],ED50,"[3]; po, read-out: Potency (ED50) Weighted Average ± SE, Seminal Vesicle Weight",7.8 ± 0.9 mg/kg
same,ED50,"[3]; po, read-out: Potency (ED50) Weighted Average ± SE, Ventral Prostate Weight",7 ± 0.9 mg/kg
same,effect on ventral prostate and seminal vesicle weights (in words),[3],dose-dependent decrease
"O=c1cc(C(F)(F)F)c2cc3c4c(c2[nH]1)CCCN4CCC3 [Compound 12, 11-(Trifluoromethyl)-9-pyridono[6,5-i]julolidine]",AR Antagonist CV-1 Cells Efficacy,human AR [1]; [5],53 ± 16 %
same,IC50,human AR [1]; [6],2370 ± 215 nM
"Cn1c(=O)cc(C(F)(F)F)c2cc3c4c(c21)CCCN4CCC3 [Compound 13, 8-Methyl-11-(trifluoromethyl)-9-pyridono[6,5-i]julolidine]",AR Antagonist CV-1 Cells Efficacy,human AR [1]; [5],84 ± 6%
same,IC50,human AR [1]; [6],726 ± 84 nM
"CC1=CC(C)(C)Nc2c1cc1c(C(F)(F)F)c(F)c(=O)[nH]c1c2C [Compound 114, 7-Fluoro-1,2-dihydro-2,2,4, 10-tetramethyl-6-trifluoromethyl-8-pyridono[5,6-g]quinoline]",AR Antagonist CV-1 Cells Efficacy,human AR [1]; [5],90 ± 1%
same,IC50,human AR [1]; [6],203 ± 66 nM
"Cc1c2c(cc3c(C(F)(F)F)c(F)c(=O)n(C)c13)C(C)CC(C)(C)N2 (stereo not shown) [Compound 116, 7-Fluoro-1,2,3,4-tetrahydro-2,2,4,9,10-pentamethyl-6-trifluoromethyl-8-pyridono[5,6-g]quinoline]",AR Antagonist CV-1 Cells Efficacy,human AR [1]; [5],20%
same,IC50,human AR [1]; [6],1460 nM
"Cc1c2c(cc3c(C(F)(F)F)c(F)c(=O)[nH]c13)C(C)CC(C)(C)N2C (stereo not shown) [Compound 117, 7-Fluoro-1,2,3,4-tetrahydro-1,2,2,4,10-pentamethyl-6-trifluoromethyl-8-pyridono[5,6-g]quinoline]",AR Antagonist CV-1 Cells Efficacy,human AR [1]; [5],82 ± 1%
same,IC50,human AR [1]; [6],394 ± 75 nM
"CC1(C)CCc2cc3c(C(F)(F)F)cc(=O)[nH]c3c([N+](=O)[O-])c2N1 [Compound 125, 1,2,3,4-Tetrahydro-2,2-dimethyl-10-nitro-6-(trifluoromethyl)-8-pyridono[5,6-g]quinoline]",AR Antagonist CV-1 Cells Efficacy,human AR [1]; [5],73%
same,IC50,human AR [1]; [6],1340 nM
"CC1(C)CCc2cc3c(C(F)(F)F)c([N+](=O)[O-])c(=O)[nH]c3c([N+](=O)[O-])c2N1 [Compound 126, 1,2,3,4-Tetrahydro-2,2-dimethyl-7,10-dinitro-6-(trifluoromethyl)-8-pyridono[5,6-g]quinoline]",IC50,human AR [1],5240 ± 363 nM
same,AR Antagonist CV-1 Cells Efficacy,human AR [1]; [5],44 ± 2 %
"CC(C)C(=O)Nc1ccc([N+](=O)[O-])c(C(F)(F)F)c1 [Flutamide, 2-methyl-N-[4-nitro-3-(trifluoromethyl)phenyl]propanamide]",ED50,[3]; [7],3.3 ± 0.4 mg/kg
same,ED50,[3]; [8],4 ± 0.6 mg/kg
same,Seminal Vesicles weight,[3]; [9],31.1 ± 0.9 (5) mg/100 g body weight
same,Ventral Prostate weight,[3]; [9],78.9 ± 3.5 (5) mg/100 g body weight
same,Seminal Vesicles weight,[3]; [10],27.9 ± 2.5 (5) mg/100 g body weight
same,Ventral Prostate weight,[3]; [10],73.1 ± 4.6 (5) mg/100 g body weight
same,Seminal Vesicles weight,[3]; [11],22.7 ± 0.9 (5) mg/100 g body weight
same,Ventral Prostate weight,[3]; [11],62.4 ± 3.7 (5) mg/100 g body weight
same,Seminal Vesicles weight,[3]; [12],12.4 ± 1.8 (5) mg/100 g body weight
same,Ventral Prostate weight,[3]; [12],43.0 ± 3.6 (5) mg/100 g body weight
same,Seminal Vesicles weight,[3]; [13],9.1 ± 1.3 (5) mg/100 g body weight
same,Ventral Prostate weight,[3]; [13],28.4 ± 3.1 (5) mg/100 g body weight
same,Seminal Vesicles weight,[3]; [14],9.9 ± 0.4 (5) mg/100 g body weight
same,Ventral Prostate weight,[3]; [14],29.9 ± 1.8 (5) mg/100 g body weight
same,effect on ventral prostate and seminal vesicle weights (in words),[3],dose-dependent decrease
"CC1(C)CCc2cc3c(C(F)(F)F)cc(=O)[nH]c3cc2N1 [LG120907, 1,2,3,4-Tetrahydro-2,2-dimethyl-6-trifluoromethyl-8-pyridono[5,6-g]quinoline]",ED50,[3]; [7],19.2 ± 2.8 mg/kg
same,ED50,[3]; [8],18.3 ± 4.8 mg/kg
same,Seminal Vesicles weight,[3]; [9],32.9 ± 1.2 (5) mg/100 g body weight
same,Ventral Prostate weight,[3]; [9],78.5 ± 2.0 (5) mg/100 g body weight
same,Seminal Vesicles weight,[3]; [10],28.9 ± 1.4 (5) mg/100 g body weight
same,Ventral Prostate weight,[3]; [10],57.3 ± 1.8 (5) mg/100 g body weight
same,Seminal Vesicles weight,[3]; [11],31.7 ± 2.9 (5) mg/100 g body weight
same,Ventral Prostate weight,[3]; [11],66.4 ± 5.6 (5) mg/100 g body weight
same,Seminal Vesicles weight,[3]; [12],28.2 ± 1.8 (5) mg/100 g body weight
same,Ventral Prostate weight,[3]; [12],59.9 ± 2.7 (5) mg/100 g body weight
same,Seminal Vesicles weight,[3]; [13],16.5 ± 0.8 (5) mg/100 g body weight
same,Ventral Prostate weight,[3]; [13],47.4 ± 2.9 (5) mg/100 g body weight
same,Seminal Vesicles weight,[3]; [14],10.4 ± 1.0 (5) mg/100 g body weight
same,Ventral Prostate weight,[3]; [14],20.2 ± 2.0 (5) mg/100 g body weight
